Test [1] deals with T1, hsMTHFD2 (Homo sapiens, UniProt P13995).
T1 construct: His-tag (vector pHis-TEV); made in house; host or cells: E. coli BL21 (DE3)
T1 sequence (P13995 36-350): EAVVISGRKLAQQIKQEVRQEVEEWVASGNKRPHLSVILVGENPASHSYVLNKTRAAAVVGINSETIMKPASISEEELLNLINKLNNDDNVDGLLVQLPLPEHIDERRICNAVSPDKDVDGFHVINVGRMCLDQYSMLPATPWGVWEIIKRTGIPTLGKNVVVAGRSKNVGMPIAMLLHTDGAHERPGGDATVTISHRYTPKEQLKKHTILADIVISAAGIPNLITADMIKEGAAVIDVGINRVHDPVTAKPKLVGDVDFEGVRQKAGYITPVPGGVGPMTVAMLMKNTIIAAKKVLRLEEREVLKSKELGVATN
Kind of test: Surface plasmon resonance assay. The test is classed as binding. As to conditions: read-out: KD (SPR). The procedure:
(§1) All surface plasmon resonance (SPR) experiments described in this study were performed on a Biacore X100 system. Different FoIDs with or without His-tag were coupled on CM5 sensor chips (GE Healthcare) by the amine coupling method using a kit from GE Healthcare Life Sciences (Freiburg, Germany). A pH scouting process was performed before protein immobilization to test the most appropriate buffer and the protein concentration for protein coupling. Finally, 20 μg/mL of ecFoID in 10 mM maleate buffer (pH 6.8), 30 μg/mL of ecFoID Q98H in 10 mM maleate buffer (pH 6.3), 40 μg/mL of ecFoID K54N in 10 mM maleate buffer (pH 5.8), 20 μg/mL of spFoID in 10 mM maleate buffer (pH 6.0) and 15 μg/mL of MTHFD2 (His-tag cleaved) in 10 mM maleate buffer (pH 6.8) were used for coupling. In the protein immobilization procedure, the contact time was calculated based on the pH scouting results to achieve -3000-5000 relative resonance units (RU). The buffer used in the SPR assays was 1×HBS-P buffer (10 mM HEPES pH 7.4, 150 mM NaCl, 0.05% Tween 20). The 1 mM stock solution of carolacton was prepared in 1×HBS-P buffer and diluted to different concentration ranges by two-fold serial dilution. In the SPR assay, the association time was 180 s and the dissociation time was 600 s. Data analysis was performed using the Biacore evaluation software. […]

In test [2] the target is T2, spFoID (Streptococcus pneumoniae serotype 4, UniProt Q97RI9).
T2 construct: made in house; host or cells: E. coli BL21 (DE3)
Briefly: Surface plasmon resonance assay. The test is classed as binding, S. pneumoniae. As to conditions: read-out: KD (SPR). As to the method: as §1

The subject of test [3] is E. coli ToIC. Briefly: Minimum inhibition concentration (MIC). The test is classed as cell-based. To be noted: Escherichia coli, read-out: minimum inhibition concentration (MIC). From the text:
First, the minimum inhibition concentration (MIC) of carolacton on E. coli ToIC strain has been determined. We started to develop the resistant mutants on CASO agar plates supplemented with 4× the MIC concentration of carolacton as selection pressure. Different numbers of E. coli ToIC cells from 1×10^7 to 10^9 were spread on caso agar plate with carolacton, respectively. After 7 days, E. coli ToIC colonies, which were resistant to carolacton, started to form on the agar plates. The mutants picked were inoculated in liquid MHB medium supplemented with carolacton.

Test [4] concerns S. pneumoniae TIGR4ΔfoID. Briefly: Planktonic growth of S. pneumoniae foID deletion mutant. The test is classed as cell-based, Streptococcus pneumoniae. To be noted: 0.25 μg/ml carolacton. As to the method:
FIG. 4. Carolacton effects on S. pneumoniae TIGR4 and foID deletion, complementation and fhs deletion mutants. (A) Growth inhibition of planktonic cultures of S. pneumoniae TIGR4 wild type, ΔfoID deletion mutant and controls in THBY. Carolacton (caro) (0.25 μg/ml) was added at an optical density of 600 nm (OD600) of 0.15. (B) Planktonic growth of the S. pneumoniae TIGR4 wild type and the TIGR4Δfhs mutant in THBY. Cultures were treated with 0.25 μg/ml carolacton (OD600 0.15).
The Streptococcus mutans and Streptococcus pneumoniae strains used herein are UA159 and TIGR4, respectively. S. pneumoniae TIGR4 was routinely grown on Columbia blood agar plates (BD Biosciences) as described previously (Donner et. al, 2016). Streptococci were grown in Todd-Hewitt-Broth +1% (w/v) yeast extract (THBY, BD Biosciences)) at 37° C. and 5% CO2. The E. coli ToIC strain used in carolacton-resistant mutant development is an antibiotic-sensitive E. coli strain without its outer membrane channel protein ToIC. E. coli DH1OB or DH5α strain was used for gene cloning and E. coli BL21 (DE3) was used for protein expression. The protein expression plasmid pHis-TEV (Liu et al., 2009) was used for cloning and expression of all different foID gene orthologues studied herein.

≈ marks a conversion by molar mass, not a printed value.

T2 sequence (Q97RI9 whole entry): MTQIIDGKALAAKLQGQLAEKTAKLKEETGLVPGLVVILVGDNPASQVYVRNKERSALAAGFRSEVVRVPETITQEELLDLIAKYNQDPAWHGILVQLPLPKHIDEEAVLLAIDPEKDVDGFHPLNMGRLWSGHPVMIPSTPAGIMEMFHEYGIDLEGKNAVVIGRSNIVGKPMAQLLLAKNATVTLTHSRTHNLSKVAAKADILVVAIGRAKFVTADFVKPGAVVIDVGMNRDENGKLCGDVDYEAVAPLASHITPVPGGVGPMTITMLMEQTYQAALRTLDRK

With `CO[C@H](CC(=O)O)[C@@H](C)C(=O)[C@H](C)/C=C(\C)[C@H]1OC(=O)[C@H](O)[C@H](O)/C=C/[C@H](C)CCC[C@@H]1C` [Carolacton, carolacton], the results for the dissociation constant Kd in test [1] and in test [2] were 19 nM and 27 nM, respectively. In test [3], the MIC turned out to be 0.125 µg/mL (≈ 0.267 µM). Also, the “sensitivity of planktonic growth to carolacton” value in test [4] is “carolacton resistant”.

For the origin of these results see patent US11357752B2, “Carolacton and derivatives thereof for use in the treatment of cell proliferation disorders” (Helmholtz-Zentrum für Infektionsforschung GmbH, priority 2017, dated 2022).
